# Data taken from PMC10223347, “Acute Toxicity and Pharmacokinetic Profile of an EU-GMP-Certified Cannabis sativa L. in Rodents” (Pharmaceuticals, 2023).
# Experiments:
# [1] = Pharmacokinetic profile: cannabinoids in rat serum by LC-MS/MS, non-compartmental analysis; conditions: for amount identified and quantitated in serum samples: rats given doses of 5, 50, 300 and 600 mg/kg, LC-MS; for Tmax / AUC Inf / AUC Last / Cl / Cmax / T1/2 / Vd: rat serum
# Procedure: The pharmacokinetic profile of the EU-GMP-certified Cannabis sativa L. with 15.6% THC and <1% CBD was assessed using 4 dose levels, 5, 50, 300, and 600 mg/kg. Dose levels were chosen in accordance with OECD 417 guidelines being lower than 1000 mg/kg but still high enough to allow for the identification and measurement of natural cannabinoids in the serum. Each dose level group consisted of 6 female Sprague-Dawley rats (8–12 weeks, 200–300 g) housed, cared and treated in the same conditions as the animals involved in the acute toxicity study. After gavage delivery of the compound, blood samples were collected, through a cardiac puncture, at 15 min, 30 min, 1 h, 2 h, 3 h, 4 h, 8 h, 12 h, 24 h, 48 h, and 72 h, respectively. The collected blood samples were then allowed to clot for 30 min at room temperature and centrifuged at 2000× g for 15 min at 4 °C. The separated serum samples were transferred immediately in microcentrifuge tubes and stored at −20 °C until THC and THCA quantification using LC-MS analysis were performed.
# A method for simultaneous extraction and LC-MS/MS quantitation of 11 cannabinoids was developed and validated for the present study. Cannabinoid extraction from rat serum was performed according to the method described by Wakshlag et al., with modifications. Rat serum (40 μL) was mixed with 10 μL water: methanol (1:1) and 10 μL internal standard (200 ng/mL of CBD-d3) diluted in water: methanol (1:1). Proteins were precipitated by adding 80 μL ice-cold acetonitrile to each sample followed by vortex 2 min at 6 °C, 1000 rpm and centrifugation at 4000 rpm for 10 min at 4 °C. The supernatant (100 μL) was mixed with ultrapure water (100 μL) in another 1.5 mL microcentrifuge tube and centrifuged again at 4000 rpm for 10 min at 4 °C. The supernatant (100 μL) was transferred to another 1.5 mL microcentrifuge tube and placed in ice until LCMS analysis. Ten μL of the sample were injected into a Phenomenex Kinetex C18 (100 × 4.6 mm, 2.6 μm, 100 Å) HPLC separation column connected in the column compartment of an Agilent 1200 HPLC coupled to an Agilent 6410 electrospray-triple quadrupole mass spectrometer. A 10:1 post-column splitter was used. The column was equilibrated with mobile phase A (0.1% formic acid in water) and mobile phase B (0.1% formic acid in acetonitrile) at 50% B for 1 min. A linear gradient from 50% B to 90% B for 3 min was used and was held constant at 90% B for 6 min, then decreased to 50% B in 1 min and maintained at 50% B for 5 min. The flow rate was […], and the column temperature was 24 °C.
# The mass spectrometer was operated in positive mode. The source parameters were a capillary voltage of 4000 V, a gas of temperature 325 °C, a gas flow of 8 L/min, and a nebulizer of 35 psi. The parameters of the mass spectrometer for each time and scan segment and the retention time for each compound are presented in Table 3.
# The qualitative analysis of the chromatograms and mass spectra was performed by Agilent MassHunter Workstation Software Qualitative Analysis v.B.01.02 and the quantitative analysis by Agilent MassHunter Workstation Software Quantitative Analysis v.B.01.03. Linear calibration curves were obtained for all 11 cannabinoids using the relative response (peak area of each cannabinoid/peak area of internal standard) and the relative concentration (concentration of each cannabinoid/concentration of internal standard). A linear 7-point calibration curve with 1/×2 weighing and a concentration range of 5–1000 ng/mL in rat serum was employed for the quantitation of the serum samples collected in the present study. The analysis of carryover was performed by LC/MS analysis of a blank sample extracted from normal rat serum after LC/MS analysis of a sample extracted from rat serum fortified with 1000 ng/mL natural cannabinoids.
# Scn1A mice = tested on: Scn1A mice; parameters: method as in PMID 34384142; conditions: cited from earlier work
# [2] = tested on: seizure models with electric shocks; parameters: method as in PMID 34384142; conditions: doses of 10 and 30 mg/kg; cited from earlier work
# CB1 [3] = tested on: CB1; parameters: method as in PMID 28861508; conditions: relative to THC; cited from earlier work
# CB2 [4] = tested on: CB2; parameters: method as in PMID 28861508; conditions: cited from earlier work
# CB2 [5] = tested on: CB2; parameters: method as in PMID 28861508; conditions: relative to THC; cited from earlier work
# CB1 [6] = tested on: CB1; parameters: method as in PMID 28861508; conditions: suggests a weak agonist activity; cited from earlier work
# [7] = oral 5 mg/kg Cannabixir Medium Flos (0.78 mg Δ9-THCA-A + Δ9-THC)
# [8] = oral 50 mg/kg Cannabixir Medium Flos (7.8 mg Δ9-THCA-A + Δ9-THC)
# [9] = oral 300 mg/kg Cannabixir Medium Flos (46.8 mg Δ9-THCA-A + Δ9-THC)
# [10] = oral 600 mg/kg Cannabixir Medium Flos (93.6 mg Δ9-THCA-A + Δ9-THC)
smiles,measurement,setting,value
"CCCCCc1cc2c(c(O)c1C(=O)O)C=CC(C)(CCC=C(C)C)O2 (stereo not drawn) [CBCA, cannabichromenic acid]",amount identified and quantitated in serum samples,[1],low amounts
"CCCc1cc2c(c(O)c1C(=O)O)C=CC(C)(CCC=C(C)C)O2 (stereo not drawn) [CBCVA, cannabichromevarinic acid]",frequency of convulsions,Scn1A mice,increase frequency of convulsions
"C=C(C)[C@@H]1CCC(C)=C[C@H]1c1c(O)cc(CCCCC)c(C(=O)O)c1O [CBDA, cannabidiolic acid]",amount identified and quantitated in serum samples,[1],low amounts
"C=C(C)[C@@H]1CCC(C)=C[C@H]1c1c(O)cc(CCC)c(C(=O)O)c1O [CBDVA, cannabidivarinic acid]",frequency of convulsions,Scn1A mice,increase frequency of convulsions
"CCCCCc1cc(O)c(C/C=C(\C)CCC=C(C)C)c(O)c1 [CBG, Cannabigerol]",frequency of convulsions,Scn1A mice,increase frequency of convulsions
"CCCCCc1cc(O)c(C/C=C(\C)CCC=C(C)C)c(O)c1C(=O)O [CBGA, cannabigerolic acid]",frequency of convulsions,Scn1A mice,increase frequency of convulsions
same,amount identified and quantitated in serum samples,[1],high amounts
same,effect on seizure models with electric shocks,[2],pro-convulsive
"CCCCCc1cc(O)c2c(c1)OC(C)(C)[C@@H]1CCC(C)=C[C@@H]21 [Δ9-THC, Δ9-tetrahydrocannabinol]",Tmax,[1]; [7],0 h
same,Tmax,[1]; [8],0 h
same,AUC Inf,[1]; [9],BQL
same,AUC Last,[1]; [9],BQL
same,Cl,[1]; [9],BQL
same,Cmax,[1]; [9],BQL
same,T1/2,[1]; [9],BQL
same,Tmax,[1]; [9],BQL
same,Vd,[1]; [9],BQL
same,AUC Inf,[1]; [10],287.2334 ng·h/mL
same,AUC Last,[1]; [10],284.342 ng·h/mL
same,Cl,[1]; [10],5431.12 mL/min/kg
same,Cmax,[1]; [10],34.916 ng/mL
same,T1/2,[1]; [10],7.080 h
same,Tmax,[1]; [10],0.25 h
same,Vd,[1]; [10],3328.818 L/kg
same,amount identified and quantitated in serum samples,[1],low amounts
"CCCCCc1cc2c(c(O)c1C(=O)O)C1C=C(C)CCC1C(C)(C)O2 (stereo not drawn) [Δ9-THCA-A, Δ9-tetrahydrocannabinolic acid]","binding for CB1, times smaller than that of THC",CB1 [3],at least 62 times
same,efficacy for CB2,CB2 [4],no efficacy
same,AUC Inf,[1]; [7],260.802 ng·h/mL
same,AUC Last,[1]; [7],197.236 ng·h/mL
same,Cmax,[1]; [7],42.425 ng/mL
same,T1/2,[1]; [7],5.3374 h
same,Tmax,[1]; [7],3 h
same,Vd,[1]; [7],23.0298 L/kg
same,AUC Inf,[1]; [8],3172.8488 ng·h/mL
same,AUC Last,[1]; [8],3163.1937 ng·h/mL
same,Cl,[1]; [8],40.972 mL/min/kg
same,Cmax,[1]; [8],404.16 ng/mL
same,T1/2,[1]; [8],5.4189 h
same,Tmax,[1]; [8],3 h
same,Vd,[1]; [8],19.2193 L/kg
same,AUC Inf,[1]; [9],"13,544.792 h*ng/mL"
same,AUC Last,[1]; [9],"13,323.57 h*ng/mL"
same,Cl,[1]; [9],57.587 mL/min/kg
same,Cmax,[1]; [9],2787.617 ng/mL
same,T1/2,[1]; [9],10.291 h
same,Tmax,[1]; [9],0.5 h
same,Vd,[1]; [9],51.298 L/kg
same,AUC Inf,[1]; [10],"43,261.689 h*ng/mL"
same,AUC Last,[1]; [10],"40,371.48 h*ng/mL"
same,Cl,[1]; [10],36.058 mL/min/kg
same,Cmax,[1]; [10],"10,563.4 ng/mL"
same,T1/2,[1]; [10],10.988 h
same,Tmax,[1]; [10],0.25 h
same,Vd,[1]; [10],34.298 L/kg
same,amount identified and quantitated in serum samples,[1],high amounts
same,"binding for CB2, times smaller than THC",CB2 [5],≥ 125 times
same,efficacy at CB1 (AMPc),CB1 [6],slightly inhibited AMPc
